Experimental findings from ChEMBL document CHEMBL6127116, “Discovery of Potent and Selective Blockers Targeting the Epilepsy-Associated KNa1.1 Channel” (J Med Chem, 2024) are described below.

For series [1], the target named is Sodium channel protein type 5 subunit alpha (Homo sapiens, UniProt Q14524). Briefly: Inhibition of Nav1.5 (unknown origin) expressed in HEK293T cells at 10 uM by patch-clamp electrophysiology method. The series is classed as cell-based.
The nature of series [2]: Inhibition of human wild type SLACK expressed in CHO cells by Whole-cell automated patch clamp assay. The series is classed as cell-based. On the technique in general: In patch-clamp work, channel activity is measured electrically.
Series [3] is described as follows: Inhibition of KNa 1.1 (unknown origin). Further details: species or system Homo sapiens.
In series [4] the test system is HEK293. Briefly: Cytotoxicity against HEK293 cells assessed as reduction in cell viability at 10 uM by CCK8 method relative to control. Type of series: toxicity, cell-based. The following applies: human, hek293, 10 µM. In general terms: Tetrazolium assays rely on reduction of a dye to a coloured formazan, in cell work by metabolically active cells.
Series [5] in a line: AUC (0 to t) in male ICR mouse at 1 mg/kg, iv administered as single dose measured upto 24 hrs by HPLC analysis. Type of series: ADME, organism-based. Particulars: in vivo.
The nature of series [6]: Drug concentration in male ICR mouse brain at 10 mg/kg, po measured after 2 hrs by LC-MS/MS analysis. The series is classed as ADME, organism-based. Particulars: read-out: Ct.
A short description of series [7]: Drug concentration in male ICR mouse brain at 1 mg/kg, iv measured after 0.5 hrs by LC-MS/MS analysis. The series is classed as ADME, organism-based. The following applies: read-out: Ct.
Series [8] can be described thus: Cmax in male ICR mouse at 10 mg/kg, po administered as single dose measured upto 24 hrs by HPLC analysis. Type of series: ADME, organism-based. The following applies: in vivo.
The nature of series [9]: MRT (0 to t) in male ICR mouse at 10 mg/kg, po administered as single dose measured upto 24 hrs by HPLC analysis. Particulars: in vivo. The series is classed as ADME, organism-based.
Series [10] can be described thus: Drug concentration in male ICR mouse plasma at 1 mg/kg, iv measured after 2 hrs by LC-MS/MS analysis. The series is classed as ADME, organism-based.
Series [11] concerns the target Voltage-gated inwardly rectifying potassium channel KCNH2 (Homo sapiens, UniProt Q12809). Briefly: Inhibition of human ERG expressed in Xenopus laevis oocytes by two-electrode voltage clamp method. The series is classed as toxicity, cell-based, Oocyte. For orientation: In two-electrode clamp one electrode senses voltage and the other passes current.
Series [12] in a line: Cmax in male ICR mouse at 1 mg/kg, iv administered as single dose measured upto 24 hrs by HPLC analysis. The series is classed as ADME, organism-based. Particulars: in vivo.
The nature of series [13]: Half life in male ICR mouse at 10 mg/kg, po administered as single dose measured upto 24 hrs by HPLC analysis. Particulars: in vivo. The series is classed as ADME, organism-based.
Series [14] is described as follows: Drug concentration in male ICR mouse brain at 10 mg/kg, po measured after 0.5 hrs by LC-MS/MS analysis. Particulars: read-out: Ct. Type of series: ADME, organism-based.
Series [15] is described as follows: Drug concentration in male ICR mouse plasma at 1 mg/kg, iv measured after 0.5 hrs by LC-MS/MS analysis. Type of series: ADME, organism-based.
Series [16] in a line: AUC (0 to t) in male ICR mouse at 10 mg/kg, po administered as single dose measured upto 24 hrs by HPLC analysis. Type of series: ADME, organism-based. Particulars: in vivo.
Series [17] in a line: Drug concentration in male ICR mouse plasma at 10 mg/kg, po measured after 2 hrs by LC-MS/MS analysis. Type of series: ADME, organism-based.
The nature of series [18]: Volume of distribution at steady state in male ICR mouse at 1 mg/kg, iv administered as single dose measured upto 24 hrs by HPLC analysis. The series is classed as ADME, organism-based. The following applies: in vivo, read-out: Vdss.
The nature of series [19]: Drug concentration in male ICR mouse plasma at 10 mg/kg, po measured after 0.5 hrs by LC-MS/MS analysis. The series is classed as ADME, organism-based.
The nature of series [20]: Half life in male ICR mouse at 1 mg/kg, iv administered as single dose measured upto 24 hrs by HPLC analysis. Particulars: in vivo. Type of series: ADME, organism-based.
Series [21] can be described thus: MRT (0 to t) in male ICR mouse at 1 mg/kg, iv administered as single dose measured upto 24 hrs by HPLC analysis. Particulars: in vivo. Type of series: ADME, organism-based.
Series [22] is described as follows: Oral bioavailability in male ICR mouse at 10 mg/kg administered as single dose measured upto 24 hrs by HPLC analysis. Type of series: ADME, organism-based. Particulars: in vivo.
Series [23] is described as follows: Drug concentration in male ICR mouse brain at 1 mg/kg, iv measured after 2 hrs by LC-MS/MS analysis. Type of series: ADME, organism-based. The following applies: read-out: Ct.
Series [24] can be described thus: Tmax in male ICR mouse at 1 mg/kg, iv administered as single dose measured upto 24 hrs by HPLC analysis. Type of series: ADME, organism-based. Particulars: in vivo.
A short description of series [25]: Tmax in male ICR mouse at 10 mg/kg, po administered as single dose measured upto 24 hrs by HPLC analysis. The series is classed as ADME, organism-based. The following applies: in vivo.
Series [26] in a line: Clearance in male ICR mouse at 1 mg/kg, iv administered as single dose measured upto 24 hrs by HPLC analysis. Type of series: ADME, organism-based. Particulars: in vivo.

A word on the IC50: it is the point on the concentration scale where inhibition reaches its midpoint. As a reminder, the AUC(0-t) is the area under the concentration-time curve up to a stated or last time point. As usually defined, the Cmax is the highest concentration seen after dosing. In general, MRT last refers to the average time that molecules of a dose stay in the body. The term half-life denotes the time needed for the level to fall by half in the phase considered. As a reminder, the bioavailability is dose-corrected exposure relative to a reference, in per cent. A word on the Tmax: it is the time from dosing to the highest level. A word on the clearance: it is the volume of plasma or blood freed of the substance per unit of time. High values mean a high capacity for elimination, low ones a low capacity for elimination.

Voltage-gated inwardly rectifying potassium channel KCNH2, sequence (Q12809 whole entry): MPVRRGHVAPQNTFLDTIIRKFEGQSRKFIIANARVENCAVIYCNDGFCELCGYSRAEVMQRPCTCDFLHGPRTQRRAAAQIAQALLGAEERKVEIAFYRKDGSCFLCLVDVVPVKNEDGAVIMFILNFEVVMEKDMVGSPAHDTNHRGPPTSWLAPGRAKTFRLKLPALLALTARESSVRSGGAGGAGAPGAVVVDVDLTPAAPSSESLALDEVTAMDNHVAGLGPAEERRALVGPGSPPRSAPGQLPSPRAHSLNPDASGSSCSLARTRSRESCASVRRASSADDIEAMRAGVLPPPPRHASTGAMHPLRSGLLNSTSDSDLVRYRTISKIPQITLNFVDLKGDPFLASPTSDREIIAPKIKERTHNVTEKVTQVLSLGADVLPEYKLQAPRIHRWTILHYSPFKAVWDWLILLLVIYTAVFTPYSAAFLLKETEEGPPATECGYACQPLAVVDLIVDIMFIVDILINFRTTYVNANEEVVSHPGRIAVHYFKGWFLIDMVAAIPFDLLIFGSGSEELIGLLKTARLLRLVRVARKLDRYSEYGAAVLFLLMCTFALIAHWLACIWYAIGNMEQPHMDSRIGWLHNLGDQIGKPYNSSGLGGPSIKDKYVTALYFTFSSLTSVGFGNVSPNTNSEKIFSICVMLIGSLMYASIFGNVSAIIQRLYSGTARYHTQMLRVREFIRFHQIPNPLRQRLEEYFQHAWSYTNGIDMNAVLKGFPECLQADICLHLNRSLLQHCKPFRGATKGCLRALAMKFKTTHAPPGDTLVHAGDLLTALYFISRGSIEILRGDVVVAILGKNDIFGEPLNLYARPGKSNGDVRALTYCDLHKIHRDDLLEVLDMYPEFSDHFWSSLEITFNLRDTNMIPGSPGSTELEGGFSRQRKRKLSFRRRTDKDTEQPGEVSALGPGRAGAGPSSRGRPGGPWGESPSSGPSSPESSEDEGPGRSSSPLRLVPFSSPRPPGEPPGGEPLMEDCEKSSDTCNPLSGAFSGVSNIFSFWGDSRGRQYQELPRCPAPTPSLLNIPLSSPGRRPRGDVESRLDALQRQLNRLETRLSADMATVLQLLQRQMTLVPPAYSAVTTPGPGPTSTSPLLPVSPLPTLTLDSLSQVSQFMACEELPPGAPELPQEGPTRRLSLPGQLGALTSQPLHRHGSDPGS
Sodium channel protein type 5 subunit alpha, sequence (Q14524 whole entry): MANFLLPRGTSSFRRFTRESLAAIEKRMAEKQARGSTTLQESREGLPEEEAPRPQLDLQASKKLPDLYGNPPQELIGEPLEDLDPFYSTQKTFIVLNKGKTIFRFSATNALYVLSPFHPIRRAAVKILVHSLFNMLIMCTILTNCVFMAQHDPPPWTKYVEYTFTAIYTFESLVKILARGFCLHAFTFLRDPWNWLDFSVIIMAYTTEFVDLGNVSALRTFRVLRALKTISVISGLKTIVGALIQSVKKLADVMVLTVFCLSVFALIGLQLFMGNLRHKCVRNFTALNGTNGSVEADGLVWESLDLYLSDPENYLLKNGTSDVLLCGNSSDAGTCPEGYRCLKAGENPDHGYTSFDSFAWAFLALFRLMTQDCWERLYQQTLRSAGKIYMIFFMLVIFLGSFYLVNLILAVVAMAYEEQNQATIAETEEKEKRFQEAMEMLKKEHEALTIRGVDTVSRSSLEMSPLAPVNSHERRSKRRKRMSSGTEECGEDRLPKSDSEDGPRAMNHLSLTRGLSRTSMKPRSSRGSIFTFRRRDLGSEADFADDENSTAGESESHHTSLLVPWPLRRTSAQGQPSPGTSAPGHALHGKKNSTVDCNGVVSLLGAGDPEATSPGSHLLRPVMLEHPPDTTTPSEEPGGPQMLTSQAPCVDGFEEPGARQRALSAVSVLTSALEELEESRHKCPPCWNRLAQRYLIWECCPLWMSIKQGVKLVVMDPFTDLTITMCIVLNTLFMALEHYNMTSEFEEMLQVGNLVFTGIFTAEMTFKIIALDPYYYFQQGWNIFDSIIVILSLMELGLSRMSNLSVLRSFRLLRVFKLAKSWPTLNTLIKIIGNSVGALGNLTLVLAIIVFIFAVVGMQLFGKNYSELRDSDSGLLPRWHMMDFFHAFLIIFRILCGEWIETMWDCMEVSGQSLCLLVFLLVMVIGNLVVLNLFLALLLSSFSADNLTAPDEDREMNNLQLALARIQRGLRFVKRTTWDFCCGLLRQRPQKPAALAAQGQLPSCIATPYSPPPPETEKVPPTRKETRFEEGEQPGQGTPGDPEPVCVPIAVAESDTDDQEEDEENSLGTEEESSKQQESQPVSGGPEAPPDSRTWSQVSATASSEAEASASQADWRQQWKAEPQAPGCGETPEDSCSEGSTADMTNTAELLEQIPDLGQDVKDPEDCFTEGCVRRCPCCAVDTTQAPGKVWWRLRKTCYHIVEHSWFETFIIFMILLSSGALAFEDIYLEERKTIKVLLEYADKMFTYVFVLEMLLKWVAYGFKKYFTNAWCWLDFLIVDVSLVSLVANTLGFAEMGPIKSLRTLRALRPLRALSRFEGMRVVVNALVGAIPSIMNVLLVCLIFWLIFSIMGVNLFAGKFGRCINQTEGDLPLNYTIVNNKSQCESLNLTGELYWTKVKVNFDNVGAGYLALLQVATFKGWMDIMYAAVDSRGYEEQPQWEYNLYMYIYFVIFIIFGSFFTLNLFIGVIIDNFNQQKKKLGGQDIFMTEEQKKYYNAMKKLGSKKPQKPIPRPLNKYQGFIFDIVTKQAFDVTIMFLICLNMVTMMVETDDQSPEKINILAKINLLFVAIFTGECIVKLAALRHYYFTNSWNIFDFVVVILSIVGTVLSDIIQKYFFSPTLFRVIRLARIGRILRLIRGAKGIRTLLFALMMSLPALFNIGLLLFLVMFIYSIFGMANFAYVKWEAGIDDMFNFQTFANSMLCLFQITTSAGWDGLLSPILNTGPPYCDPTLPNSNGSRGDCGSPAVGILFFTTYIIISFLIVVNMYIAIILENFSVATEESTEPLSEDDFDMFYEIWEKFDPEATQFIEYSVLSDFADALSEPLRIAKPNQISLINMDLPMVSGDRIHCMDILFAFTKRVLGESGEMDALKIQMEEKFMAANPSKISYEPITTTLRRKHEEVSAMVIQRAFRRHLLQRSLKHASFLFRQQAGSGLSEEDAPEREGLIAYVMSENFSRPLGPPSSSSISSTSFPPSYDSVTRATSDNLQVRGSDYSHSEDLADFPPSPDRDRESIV

`CN(C)CCCCNCc1c(OCc2ccc(F)cc2)ccc2ccccc12`: the “inhibition (INH)” value in [1] is reported as “Not Active”.
As for `Cc1ccc2cccc(S(=O)(=O)N3CC(c4nc(-c5ccc(F)cc5)no4)C3)c2n1`, it took 0.32 µM to reach half-maximal inhibition in series [2] (IC50).
With `CCOc1ccccc1S(=O)(=O)N1CC(c2nc(-c3ccsc3)no2)C1`, inhibition in [3] was half-maximal at 2.1 µM (IC50).
For the compound `CN1CCC(NCc2c(OCc3ccc(F)cc3)ccc3ccccc23)CC1`, the Activity in [4] came to 53.17%.
For the compound `CN1CCC(NCc2c(OCc3ccc(Br)cc3)ccc3ccccc23)CC1`, the AUC(0-t) at 24 h in series [5] is 62 ng·h/mL; in series [16] it was 110 ng·h/mL. Moreover, the concentration at 2 h was found to be 158 ng/mL in series [6], 4.16 ng/mL in [10], 9.16 ng/mL in series [17] and 702 ng/mL in [23]. The concentration at 0.5 h in series [7] was 960 ng/mL; in [14], 102 ng/mL; in series [15], 12.8 ng/mL; in series [19], 32.4 ng/mL. Also, the Cmax was found to be 43.8 ng/mL in [8] and 25.4 ng/mL in [12]. For the same compound, the mean residence time MRT last at 24 h in series [9] was determined as 5.37 h; in [21], 7.21 h. The compound further yielded a concentration for half-maximal inhibition (IC50) in [11] of 14.9 µM. Besides, the half-life was 7.23 h in series [13] and 3.57 h in [20]. The Vd in series [18] was 132 L/kg. The compound also displayed a bioavailability in series [22] of 17.8%. Besides, the Tmax was found to be 4.8 min in [24] and 0.17 h in series [25]. The compound also had a clearance in series [26] of 249 mL/min/kg.
